This note sets out measurements from article doi:10.1101/2025.01.17.633651, “Markovian State Models uncover Casein Kinase 1 dynamics that govern circadian period” (bioRxiv, 2025).

The target of this assay is CK1 D132A. The assay can be described thus: Radioactive (32P-ATP) timecourse kinase assay, CK1 D132A mutant. Type of assay: biochemical, human. The settings on record: 200 μM peptide, 20 nM CK1 (primed) or 200 nM CK1 (unprimed), 750 μM ATP, 30 °C (Figure S15B-C). As to the method:
PER FASP region peptides were synthesized and purified to 95% or higher (SABio). Two independent reaction mixtures of 50 μL containing 200 μM of the FASP or in reaction buffer (25 mM Tris pH 7.5, 7.5 mM MgCl2, 1 mM DTT, 0.1 mg/mL BSA) were preincubated for 5 minutes with or without 20 nM CK1 (for primed FASP) or 200 nM CK1 (for unprimed FASP) and the reaction was started by addition of 750 μM of UltraPure ATP (Promega) containing 1–2 μCi of X-^32p ATP (Perkin Elmer). After incubation of the reaction mix at 30 °C, an 8 μL aliquot of the reaction mix was transferred to P81 phosphocellulose paper (Reaction Biology Corp) at the indicated timepoints. The P81 paper was washed three times with 75 mM of orthophosphoric acid and once with acetone. The air-dried P81 paper was counted for Pi incorporation using a scintillation counter (Perkin Elmer) by Cherenkov counting. Results shown are from four independent assays.

Consider “RKKKTEVSAHLSSLTLPGKAESVVSLTSQ [unprimed FASP peptide, synthetic mouse PER2 FASP region peptide, unprimed CK1 substrate]”, for which the “kinase activity, CK1 D132A compared with CK1 WT” value is given as “dramatic loss in activity”. On to “RKKKTEVSAHLSSLTLPGKAEpSVVSLTSQ [primed FASP peptide, synthetic mouse PER2 FASP peptide phosphorylated at the priming serine]”, for which the “kinase activity, CK1 D132A compared with CK1 WT” value is reported as “more modest effect”.
